Experimental data reported in ChEMBL document CHEMBL1152860, “Synthesis and antiproliferative activity of 3-amino-N-phenyl-1H-indazole-1-carboxamides” (2009).
The source made the active and inactive calls.

Experiments:
A549 = test: Growth inhibition of human A549 cells after 48 hrs by SRB assay; assay type: functional; details: A549, 48 h
CCRF-CEM = test: Growth inhibition of human CCRF-CEM cells after 48 hrs by SRB assay; assay type: functional
SF-539 = test: Growth inhibition of human SF539 cells after 48 hrs by SRB assay; assay type: functional; details: SF-539, 48 h
Malme-3M = test: Growth inhibition of human MALME-3M cells after 48 hrs by SRB assay; assay type: functional
OVCAR-5 = test: Growth inhibition of human OVCAR5 cells after 48 hrs by SRB assay; assay type: functional; details: OVCAR-5, 48 h
KM12 = test: Growth inhibition of human KM12 cells after 48 hrs by SRB assay; assay type: functional; details: KM12, 48 h
UACC-257 = test: Growth inhibition of human UACC257 cells after 48 hrs by SRB assay; assay type: functional; details: UACC-257, 48 h
SK-MEL-5 = test: Growth inhibition of human SK-MEL-5 cells after 48 hrs by SRB assay; assay type: functional; details: SK-MEL-5, 48 h
MCF7 = test: Growth inhibition of human MCF7 cells after 48 hrs by SRB assay; assay type: functional; details: MCF7, 48 h
K562 [1] = test: Growth inhibition of human K562 cells after 48 hrs by SRB assay; assay type: functional; details: K562, 48 h
HCT-15 = test: Growth inhibition of human HCT15 cells after 48 hrs by SRB assay; assay type: functional; details: HCT-15, 48 h
SR = test: Growth inhibition of human SR cells after 48 hrs by SRB assay; assay type: functional
SF-295 = test: Growth inhibition of human SF295 cells after 48 hrs by SRB assay; assay type: functional; details: SF-295, 48 h
NCI/ADR-RES = test: Growth inhibition of human NCI/ADR-RES cells after 48 hrs by SRB assay; assay type: functional
SK-MEL-28 = test: Growth inhibition of human SK-MEL-28 cells after 48 hrs by SRB assay; assay type: functional; details: SK-MEL-28, 48 h
RXF 393 = test: Growth inhibition of human […] cells after 48 hrs by SRB assay; assay type: functional; details: RXF 393, 48 h
OVCAR-3 = test: Growth inhibition of human OVCAR-3 cells after 48 hrs by SRB assay; assay type: functional; details: OVCAR-3, 48 h
M14 = test: Growth inhibition of human M14 cells after 48 hrs by SRB assay; assay type: functional; details: M14, 48 h
NCI-H522 = test: Growth inhibition of human NCI-H522 cells after 48 hrs by SRB assay; assay type: functional; details: NCI-H522, 48 h
HL-60(TB) = test: Growth inhibition of human HL-60(TB) cells after 48 hrs by SRB assay; assay type: functional; details: HL-60, 48 h
NCI-H226 = test: Growth inhibition of human NCI-H226 cells after 48 hrs by SRB assay; assay type: functional; details: NCI-H226, 48 h
K562 [2] = test: Cell cycle arrest in human K562 cells assessed as accumulation at S phase at 180 uM after 24 hrs using propidium iodide staining by flow cytometry; assay type: functional, cell-based
NCI-H23 = test: Growth inhibition of human NCI-H23 cells after 48 hrs by SRB assay; assay type: functional; details: NCI-H23, 48 h
NCI-H460 = test: Growth inhibition of human NCI-H460 cells after 48 hrs by SRB assay; assay type: functional; details: NCI-H460, 48 h
TK-10 = test: Growth inhibition of human TK10 cells after 48 hrs by SRB assay; assay type: functional; details: TK-10, 48 h
HCT-116 = test: Growth inhibition of human HCT116 cells after 48 hrs by SRB assay; assay type: functional; details: HCT-116, 48 h
OVCAR-8 = test: Growth inhibition of human OVCAR8 cells after 48 hrs by SRB assay; assay type: functional; details: OVCAR-8, 48 h
U-251 = test: Growth inhibition of human U251 cells after 48 hrs by SRB assay; assay type: functional; details: U-251, 48 h
OVCAR-4 = test: Growth inhibition of human OVCAR4 cells after 48 hrs by SRB assay; assay type: functional; details: OVCAR-4, 48 h
DU-145 = test: Growth inhibition of human DU145 cells after 48 hrs by SRB assay; assay type: functional; details: DU-145, 48 h
A498 = test: Growth inhibition of human A498 cells after 48 hrs by SRB assay; assay type: functional; details: A498, 48 h
RPMI-8226 = test: Growth inhibition of human RPMI8226 cells after 48 hrs by SRB assay; assay type: functional; details: RPMI-8226, 48 h
786-0 = test: Growth inhibition of human 786-0 cells after 48 hrs by SRB assay; assay type: functional; details: 786-0, 48 h
HOP-92 = test: Growth inhibition of human HOP92 cells after 48 hrs by SRB assay; assay type: functional; details: HOP-92, 48 h
EKVX = test: Growth inhibition of human EKVX cells after 48 hrs by SRB assay; assay type: functional
CAKI-1 = test: Growth inhibition of human Caki1 cells after 48 hrs by SRB assay; assay type: functional; details: CAKI-1, 48 h
ACHN = test: Growth inhibition of human ACHN cells after 48 hrs by SRB assay; assay type: functional
BT-549 = test: Growth inhibition of human BT549 cells after 48 hrs by SRB assay; assay type: functional; details: BT-549, 48 h
MOLT-4 = test: Growth inhibition of human MOLT4 cells after 48 hrs by SRB assay; assay type: functional; details: MOLT-4, 48 h
HCC 2998 = test: Growth inhibition of human HCC2998 cells after 48 hrs by SRB assay; assay type: functional; details: HCC 2998, 48 h
PC-3 = test: Growth inhibition of human PC3 cells after 48 hrs by SRB assay; assay type: functional; details: PC-3, 48 h
NCI-H322M = test: Growth inhibition of human NCI-H322M cells after 48 hrs by SRB assay; assay type: functional
MDA-MB-231 = test: Growth inhibition of human MDA-MB-231 cells after 48 hrs by SRB assay; assay type: functional; details: MDA-MB-231, 48 h
LOX IMVI = test: Growth inhibition of human LOXIMVI cells after 48 hrs by SRB assay; assay type: functional
SK-OV-3 = test: Growth inhibition of human SKOV3 cells after 48 hrs by SRB assay; assay type: functional; details: SK-OV-3, 48 h
SN12C = test: Growth inhibition of human SN12C cells after 48 hrs by SRB assay; assay type: functional
UACC-62 = test: Growth inhibition of human UACC62 cells after 48 hrs by SRB assay; assay type: functional; details: UACC-62, 48 h
HOP-62 = test: Growth inhibition of human HOP62 cells after 48 hrs by SRB assay; assay type: functional; details: HOP-62, 48 h
SNB-19 = test: Growth inhibition of human SNB19 cells after 48 hrs by SRB assay; assay type: functional; details: SNB-19, 48 h
K562 [3] = test: Cell cycle arrest in human K562 cells assessed as accumulation at G2/M phase at 180 uM after 24 hrs using propidium iodide staining by flow cytometry; assay type: functional, cell-based
T47D = test: Growth inhibition of human T47D cells after 48 hrs by SRB assay; assay type: functional
SF-268 = test: Growth inhibition of human SF268 cells after 48 hrs by SRB assay; assay type: functional; details: SF-268, 48 h
HT-29 = test: Growth inhibition of human HT-29 cells after 48 hrs by SRB assay; assay type: functional; details: HT-29, 48 h
MDA-MB-435 = test: Growth inhibition of human MDA-MB-435 cells after 48 hrs by SRB assay; assay type: functional; details: MDA-MB-435, 48 h
[4] = Growth inhibition of human Hs 578T cells after 48 hrs by SRB assay; assay type: functional
SW-620 = test: Growth inhibition of human SW620 cells after 48 hrs by SRB assay; assay type: functional; details: SW-620, 48 h
SNB-75 = test: Growth inhibition of human SNB75 cells after 48 hrs by SRB assay; assay type: functional; details: SNB-75, 48 h
UO-31 = test: Growth inhibition of human UO31 cells after 48 hrs by SRB assay; assay type: functional; details: UO-31, 48 h
IGROV-1 = test: Growth inhibition of human IGROV1 cells after 48 hrs by SRB assay; assay type: functional; details: IGROV-1, 48 h
COLO 205 = test: Growth inhibition of human COLO205 cells after 48 hrs by SRB assay; assay type: functional; details: COLO 205, 48 h
K562 [5] = test: Cell cycle arrest in human K562 cells assessed as accumulation at G2/M phase at 140 uM after 24 hrs using propidium iodide staining by flow cytometry; assay type: functional, cell-based
K562 [6] = test: Cell cycle arrest in human K562 cells assessed as accumulation at S phase at 140 uM after 24 hrs using propidium iodide staining by flow cytometry; assay type: functional, cell-based
SK-MEL-2 = test: Growth inhibition of human SK-MEL-2 cells after 48 hrs by SRB assay; assay type: functional; details: SK-MEL-2, 48 h
[7] = read-out: LC50 (the source's name)

COc1ccccc1NC(=O)n1nc(N)c2ccccc21
44.8 µM: GI50 (EKVX)
92.5 µM: GI50 (SR)
39.1 µM: GI50 (KM12)
33.8 µM: GI50 [4]
60.9 µM: GI50 (SF-539)
98.7 µM: GI50 (U-251)
100 µM: GI50 (HOP-62)
30.2 µM: GI50 (HOP-92)
54 µM: GI50 (MOLT-4)
37 µM: GI50 (SNB-75)
73.6 µM: GI50 (HCT-15)
64.6 µM: TGI (MCF7)
86 µM: GI50 (RPMI-8226)
83.1 µM: GI50 (PC-3)
90.7 µM: GI50 (NCI/ADR-RES)
46.1 µM: GI50 (MDA-MB-231)
active: Activity (K562 [2]) | Activity (K562 [3])
> 100 µM: GI50 (A549) | GI50 (CCRF-CEM) | GI50 (Malme-3M) | GI50 (OVCAR-5) | GI50 (UACC-257) | GI50 (SK-MEL-5) | CC50 (MCF7; [7]) | GI50 (K562 [1]) | GI50 (SK-MEL-28) | GI50 (OVCAR-3) | GI50 (M14) | GI50 (NCI-H226) | GI50 (NCI-H23) | GI50 (HCT-116) | GI50 (OVCAR-8) | GI50 (OVCAR-4) | GI50 (DU-145) | GI50 (A498) | GI50 (786-0) | GI50 (CAKI-1) | GI50 (ACHN) | GI50 (NCI-H322M) | GI50 (SK-OV-3) | GI50 (SN12C) | GI50 (UACC-62) | GI50 (SNB-19) | GI50 (T47D) | GI50 (SF-268) | GI50 (HT-29) | GI50 (MDA-MB-435) | GI50 (SW-620) | GI50 (UO-31) | GI50 (COLO 205)
49.5 µM: GI50 (NCI-H522)
28 µM: GI50 (BT-549)
47.2 µM: GI50 (HL-60(TB))
78.9 µM: GI50 (NCI-H460)
27.3 µM: GI50 (IGROV-1)
0.269 µM: GI50 (MCF7)
66.2 µM: GI50 (HCC 2998)
45.7 µM: GI50 (RXF 393)
74.3 µM: GI50 (TK-10)
56.6 µM: GI50 (SF-295)
92.1 µM: GI50 (LOX IMVI)

O=C(Nc1cc(C(F)(F)F)ccc1F)Nc1n[nH]c2ccccc12
> 100 µM: GI50 (A549) | GI50 (SF-539) | GI50 (Malme-3M) | GI50 (OVCAR-5) | GI50 (KM12) | GI50 (UACC-257) | GI50 (SK-MEL-5) | GI50 (K562 [1]) | GI50 (HCT-15) | GI50 (SF-295) | GI50 (NCI/ADR-RES) | GI50 (SK-MEL-28) | GI50 (RXF 393) | GI50 (OVCAR-3) | GI50 (M14) | GI50 (NCI-H522) | GI50 (HL-60(TB)) | GI50 (NCI-H226) | GI50 (NCI-H23) | GI50 (NCI-H460) | GI50 (TK-10) | GI50 (HCT-116) | GI50 (OVCAR-8) | GI50 (U-251) | GI50 (OVCAR-4) | GI50 (DU-145) | GI50 (A498) | GI50 (RPMI-8226) | GI50 (786-0) | GI50 (HOP-92) | GI50 (EKVX) | GI50 (CAKI-1) | GI50 (ACHN) | GI50 (BT-549) | GI50 (MOLT-4) | GI50 (HCC 2998) | GI50 (PC-3) | GI50 (NCI-H322M) | GI50 (MDA-MB-231) | GI50 (LOX IMVI) | GI50 (SK-OV-3) | GI50 (SN12C) | GI50 (UACC-62) | GI50 (HOP-62) | GI50 (SNB-19) | TGI (T47D) | CC50 (T47D; [7]) | GI50 (SF-268) | GI50 (HT-29) | GI50 (MDA-MB-435) | GI50 [4] | GI50 (SK-MEL-2) | GI50 (SW-620) | GI50 (UO-31) | TGI (IGROV-1) | CC50 (IGROV-1; [7]) | GI50 (COLO 205)
0.758 µM: GI50 (IGROV-1)
18.2 µM: GI50 (MCF7)
55.4 µM: GI50 (SR)
40.1 µM: GI50 (SNB-75)
0.215 µM: GI50 (T47D)
active: Activity (K562 [5]) | Activity (K562 [6])
